Structures can show the parent of a compound that is named as a salt. Where two headings read alike, the source gives them in different places. Some results are limits rather than exact numbers.

From US20200024278A1, “COMPOSITION COMPRISING ANTIBIOTIC COMPOUND AND AN HETEROCYCLIC COMPOUND AND THEIR USE IN PREVENTING OR TREATING BACTERIAL INFECTIONS” (MUTABILIS, priority 2016, published 2020) come the findings set out here.

One assay has as its system ECO 190317. Put plainly: Fractional Inhibitory Concentration Index, checkerboard assay. It is filed as cell-based, E. coli. The method, boiled down:
(§1)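 Two-agent checkerboards of 2-fold dilutions in ca-MHB were inoculated at 5.10^5 CFU/mL and incubated 18 h at 35 °C in air, in duplicate; fosfomycin wells also held 25 μg/ml glucose-6-phosphate. FICI calculated as the sum of combination/alone MIC ratios for each drug.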

The test system of the next assay is ECL P99. Described as above. It is filed as cell-based, E. cloacae. The method, boiled down:
as §1

In the next assay the test system is ABA UFR159. Put plainly: MIC, broth microdilution (CLSI), substance alone or ATB combined with compound at 4 or 8 μg/mL. The conditions noted are these: substance alone. It is filed as cell-based, A. baumannii. The method, boiled down:
(§2)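 Antibiotic MICs were determined in presence of fixed compound at 4 or 8 μg/mL, and compound MICs alone, by visual growth inhibition. Inoculum 5·10^5 CFU/mL in ca-MHB, incubated 35 °C for 16-20 h per CLSI-M7-A7. Glucose-6-phosphate (25 μg/ml) added when fosfomycin was tested.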
For orientation: Dilution methods test growth across graded concentrations, often in twofold steps.

The next assay relates to ABA UFR155. The description is as above. The conditions noted are these: substance alone. It is filed as cell-based, A. baumannii. The method, boiled down:
as §2

The next assay concerns ABA UFR161. The assay is described as above. It is filed as cell-based, A. baumannii. The conditions noted are these: substance alone. The method, boiled down: as §2
A further assay concerns ABA UFR160. The description is as above. It is filed as cell-based, A. baumannii. The conditions noted are these: substance alone. The method, boiled down: as §2
Another assay has as its system ABA UFR156. The assay is described as above. It is filed as cell-based, A. baumannii. The settings on record: substance alone. The method, boiled down:
as §2

For a further assay, the system named is ABA UFR151. Described as above. The conditions noted are these: substance alone. The format is cell-based, A. baumannii. The method, boiled down:
as §2

The subject of a further assay is ABA UFR158. The assay is described as above. The format is cell-based, A. baumannii. The conditions noted are these: substance alone. The method, boiled down:
as §2

Another assay has as its system ABA UFR153. The description is as above. It is filed as cell-based, A. baumannii. The conditions noted are these: substance alone. The method, boiled down: as §2
In the next assay the test system is ABA UFR157. The description is as above. The format is cell-based, A. baumannii. The settings on record: substance alone. The method, boiled down: as §2
A further assay deals with ABA UFR152. The description is as above. The format is cell-based, A. baumannii. The conditions noted are these: substance alone. The method, boiled down:
as §2

A further assay relates to ABA UFR154. The assay is described as above. It is filed as cell-based, A. baumannii. The conditions noted are these: substance alone. The method, boiled down: as §2
The next assay has as its system KPN UFR68. Put plainly: Fractional Inhibitory Concentration Index, checkerboard assay. The format is cell-based, K. pneumoniae. The method, boiled down:
as §1

A further assay relates to PAE UFR48. Described as above. The format is cell-based, P. aeruginosa. The method, boiled down:
as §1

The subject of the next assay is PAE UFR90. Described as above. It is filed as cell-based, P. aeruginosa. The method, boiled down:
as §1

Setting [1] is: Acinetobacter baumannii, read-out: MIC.

For orientation: MIC means the least concentration at which growth counts as inhibited. Consider `O=C1N2CC(c3ncco3)=C[C@H](C2)N1OS(=O)(=O)[O-].[Na+]` [Example 9, sodium [(5R)-3-(oxazol-2-yl)-7-oxo-1,6-diazabicyclo[3.2.1]oct-3-en-6-yl] sulfate], for which the FIC index min with ECO 190317 (compound +ATM) is recorded as 0.20; with ECO 190317 (compound +FEP) it was not above 0.07; in the assay with ECO 190317 (compound +FOS), 0.69; with ECO 190317 (compound +MEM), 0.58; in the assay with ECO 190317 (compound +PIP), not above 0.21; in the assay with ECL P99 (compound +ATM) it was 0.53. The FIC index min is 0.23 in the assay with ECL P99 (compound +FEP); not above 0.19 in the assay on ECL P99 (compound +FOS); 0.88 in the assay with ECL P99 (compound +MEM); 0.20 in the assay on ECL P99 (compound +PIP); not above 0.27 in the assay on KPN UFR68 (compound +ATM); not above 0.05 in the assay on KPN UFR68 (compound +FEP). Further, the FIC index min in the assay on KPN UFR68 (compound +FOS) is 0.50; in the assay on KPN UFR68 (compound +MEM), 0.15; in the assay on KPN UFR68 (compound +PIP), not above 0.27; in the assay with PAE UFR48 (compound +ATM), 0.14; in the assay on PAE UFR48 (compound +FEP) it was 0.50; in the assay with PAE UFR48 (compound +FOS), 1.0. Also, the FIC index min in the assay with PAE UFR48 (compound +MEM) was 0.8; in the assay on PAE UFR48 (compound +PIP), 0.32; in the assay with PAE UFR90 (compound +ATM), not above 0.30; in the assay with PAE UFR90 (compound +FEP) it was not above 0.27; in the assay with PAE UFR90 (compound +FOS), not above 0.52; with PAE UFR90 (compound +MEM), not above 0.53. The FIC index min in the assay on PAE UFR90 (compound +PIP) is on record as not above 0.23. The MIC in the assay with ABA UFR159 (setting [1]), with ABA UFR155 (setting [1]), with ABA UFR161 (setting [1]), in the assay with ABA UFR160 (setting [1]), in the assay with ABA UFR156 (setting [1]) and in the assay with ABA UFR151 (setting [1]) was more than 32 µg/mL each time. For the same molecule, the MIC in the assay on ABA UFR158 (setting [1]), with ABA UFR153 (setting [1]), in the assay with ABA UFR157 (setting [1]), with ABA UFR152 (setting [1]) and in the assay on ABA UFR154 (setting [1]) was more than 32 µg/mL throughout.
For `NC[C@H]1C=C(c2cnco2)[C@@H]2CN1C(=O)N2OS(=O)(=O)[O-].O=C(O)C(F)(F)F.[Na+]` (relative stereo) [Example 1, sodium and 2,2,2-trifluoroacetate [trans-2-(azaniumylmethyl)-4-oxazol-5-yl-7-oxo-1,6-diazabicyclo[3.2.1]oct-3-en-6-yl] sulfate], the FIC index min is recorded as 0.51 in the assay with ECO 190317 (compound +ATM); 0.49 in the assay with ECO 190317 (compound +FEP); 0.37 in the assay with ECO 190317 (compound +FOS); 0.63 in the assay with ECO 190317 (compound +MEM); not above 0.38 in the assay on ECO 190317 (compound +PIP); 0.50 in the assay on ECL P99 (compound +ATM). The FIC index min in the assay on ECL P99 (compound +FEP) was 0.47; in the assay with ECL P99 (compound +FOS), not above 0.3125; with ECL P99 (compound +MEM), 0.56; with ECL P99 (compound +PIP), 0.50; in the assay with KPN UFR68 (compound +ATM) it was not above 0.023; with KPN UFR68 (compound +FEP) it was not above 0.0088. Besides, the FIC index min with KPN UFR68 (compound +FOS) is listed as not above 0.126; with KPN UFR68 (compound +MEM) it was not above 0.0098; with KPN UFR68 (compound +PIP), not above 0.012; in the assay on PAE UFR48 (compound +ATM) it was 0.25; in the assay on PAE UFR48 (compound +FEP) it was 0.53; in the assay on PAE UFR48 (compound +FOS), 0.62. For the same molecule, the FIC index min stood at 0.27 with PAE UFR48 (compound +MEM); 0.27 in the assay with PAE UFR48 (compound +PIP); 0.54 in the assay with PAE UFR90 (compound +ATM); 0.50 in the assay with PAE UFR90 (compound +FEP); 1.0 in the assay on PAE UFR90 (compound +FOS); 0.75 in the assay with PAE UFR90 (compound +MEM). Moreover, the FIC index min in the assay with PAE UFR90 (compound +PIP) is 0.88. In addition, the MIC with ABA UFR159 (setting [1]), with ABA UFR155 (setting [1]), in the assay with ABA UFR161 (setting [1]), in the assay with ABA UFR160 (setting [1]), in the assay with ABA UFR156 (setting [1]) and with ABA UFR151 (setting [1]) was more than 32 µg/mL each time. Also, the minimal inhibitory concentration (MIC) in the assay on ABA UFR158 (setting [1]), in the assay with ABA UFR153 (setting [1]), with ABA UFR157 (setting [1]), in the assay on ABA UFR152 (setting [1]) and in the assay with ABA UFR154 (setting [1]) was more than 32 µg/mL in each case.
For `O=C1N2CC(n3cccn3)=CC(C2)N1OS(=O)(=O)[O-].[Na+]` (stereo not shown) [Example 11, sodium (7-oxo-3-pyrazol-1-yl-1,6-diazabicyclo[3.2.1]oct-3-en-6-yl) sulfate], the MIC in the assay on ABA UFR159 (setting [1]), with ABA UFR155 (setting [1]), in the assay on ABA UFR161 (setting [1]), in the assay on ABA UFR160 (setting [1]), in the assay on ABA UFR156 (setting [1]) and with ABA UFR151 (setting [1]) was more than 32 µg/mL in each case. In addition, the minimal inhibitory concentration (MIC) in the assay on ABA UFR158 (setting [1]), with ABA UFR153 (setting [1]), in the assay on ABA UFR157 (setting [1]), in the assay with ABA UFR152 (setting [1]) and in the assay with ABA UFR154 (setting [1]) was more than 32 µg/mL each time.
In the case of `O=C(O)C(F)(F)F.O=C1N2C[C@H](c3scnc3[C@H]2c2ncc[nH]2)N1OS(=O)(=O)[O-].[Na+]` (relative stereo) [Example 6, sodium and 2,2,2-trifluoroacetate [trans-7-(1H-imidazol-3-ium--2-yl)-9-oxo-3-thia-5,8,10-triaza-tricyclo[6.2.1.0^2,6]undeca-2(6),4-dien-10-yl]sulfate], the MIC is more than 32 µg/mL with ABA UFR159; 16 µg/mL in the assay with ABA UFR155; 32 µg/mL in the assay on ABA UFR161; 16 µg/mL in the assay with ABA UFR160; 16 µg/mL in the assay with ABA UFR156; 32 µg/mL with ABA UFR151. The MIC with ABA UFR158 was 16 µg/mL; in the assay with ABA UFR153 it was 16 µg/mL; in the assay with ABA UFR157 it was 8 µg/mL; in the assay with ABA UFR152, 32 µg/mL; in the assay with ABA UFR154 it was 32 µg/mL. For the same molecule, the FIC index min with KPN UFR68 (compound +ATM) is on record as 1.0; with KPN UFR68 (compound +FEP), 1.0; in the assay on KPN UFR68 (compound +FOS) it was 0.28; in the assay with KPN UFR68 (compound +MEM), 0.50; with KPN UFR68 (compound +PIP), not above 0.5.
In the case of `O=C1N2CC(n3ccnn3)=CC(C2)N1OS(=O)(=O)[O-].[Na+]` (stereo not shown) [Example 12, sodium [7-oxo-3-(triazol-1-yl)-1,6-diazabicyclo[3.2.1]oct-3-en-6-yl] sulfate], the MIC with ABA UFR159, in the assay with ABA UFR155, in the assay with ABA UFR161, with ABA UFR160, in the assay with ABA UFR156 and with ABA UFR151 was more than 32 µg/mL each time. In addition, the MIC with ABA UFR158, with ABA UFR153, with ABA UFR157, with ABA UFR152 and in the assay on ABA UFR154 was more than 32 µg/mL in each case.
Take `NCCCn1c2c(sc1=O)C1CN(C2)C(=O)N1OS(=O)(=O)O` (stereo not shown) [Example 10, [5-(3-aminopropyl)-4,9-dioxo-3-thia-5,8,10-triaza-tricyclo[6.2.1.0^2,6]undec-2(6)-en-10-yl] hydrogen sulfate]: the MIC in the assay on ABA UFR159 (setting [1]), in the assay on ABA UFR155 (setting [1]), in the assay with ABA UFR161 (setting [1]), in the assay on ABA UFR160 (setting [1]), in the assay on ABA UFR156 (setting [1]) and in the assay with ABA UFR151 (setting [1]) was more than 32 µg/mL in each case. The MIC in the assay on ABA UFR158 (setting [1]) was more than 32 µg/mL; in the assay with ABA UFR153 (setting [1]), 32 µg/mL; in the assay on ABA UFR157 (setting [1]) it was more than 32 µg/mL; in the assay with ABA UFR152 (setting [1]) it was 32 µg/mL; with ABA UFR154 (setting [1]) it was more than 32 µg/mL.
